Experiment [1] addresses T1, Housefly GABA receptors (Musca domestica, UniProt Q75NA5).
T1 sequence (Q75NA5 30-576): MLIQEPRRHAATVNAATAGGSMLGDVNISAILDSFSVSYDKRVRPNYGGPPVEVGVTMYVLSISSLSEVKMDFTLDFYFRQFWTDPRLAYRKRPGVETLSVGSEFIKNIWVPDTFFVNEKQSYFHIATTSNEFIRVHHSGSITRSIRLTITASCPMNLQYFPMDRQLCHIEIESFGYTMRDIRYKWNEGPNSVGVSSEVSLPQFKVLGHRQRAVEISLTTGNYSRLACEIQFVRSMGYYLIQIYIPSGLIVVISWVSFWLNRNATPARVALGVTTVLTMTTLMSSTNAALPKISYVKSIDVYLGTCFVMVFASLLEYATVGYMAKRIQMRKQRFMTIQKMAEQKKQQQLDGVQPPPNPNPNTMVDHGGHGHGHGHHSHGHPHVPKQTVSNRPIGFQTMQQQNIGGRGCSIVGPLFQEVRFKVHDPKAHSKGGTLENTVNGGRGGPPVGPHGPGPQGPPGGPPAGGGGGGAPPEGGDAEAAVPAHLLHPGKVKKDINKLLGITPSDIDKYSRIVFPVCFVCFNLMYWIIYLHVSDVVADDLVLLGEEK
Kind of experiment: In vitro assay of binding to housefly GABA receptors (3H-EBOB displacement, housefly neuronal membranes). Particulars: for Compounds with the most activity (housefly 3H-EBOB binding): housefly neuronal membranes. The method, then: Newly emerged houseflies (Musca domestica, available from Rincon-Vitova Insectaries, Inc., Ventura, Calif.) were sedated with carbon dioxide gas, collected in 50 mL polypropylene conical tubes, and immediately frozen by submersion in liquid nitrogen. Unless specified, all of the following work was performed at 0-4° C. After removal from liquid nitrogen, the tubes of frozen houseflies were shaken vigorously by hand to decapitate the houseflies. […] Contaminating wings were removed by holding a vacuum nozzle approximately 4 cm above the heads, and contaminating legs were separated from the heads by passage through a #15 mesh screen. All remaining debris were removed from the pool of heads using forceps. The purified heads were collected in 50 mL polypropylene conical tubes and stored in liquid nitrogen until processed further.
About 13 g of purified housefly heads were suspended in about 65 mL of 10% sucrose buffer (10% sucrose (w/w) in 10 mM Tris, pH 7.5). The heads were homogenized for about 1 minute, using a Tissumizer™ homogenizer equipped with a SDT-100EN probe (available from Tekmar-Dohrmann, Cincinnati, Ohio) running at 70% of its maximum speed. The extract was further homogenized by about 5 passes through a 40 mL Dounce tissue grinder. The extract was then centrifuged at about 500×g for about 5 minutes to pellet large debris. The supernatant was collected; the pellet was washed with an additional 65 mL of 10% sucrose buffer and centrifuged at 500×g for about 5 minutes. The second supernatant was collected and combined with the first supernatant, and the pool was filtered through a 100μ CellMicroSieve™ mesh to remove residual debris (available from BioDesign of New York, Carmel, N.Y.).
Neuronal membranes containing active GABA receptors were collected via sucrose density centrifugation by the following method. About 8 mL of 35% sucrose buffer (35% sucrose (w/w) in 10 mM Tris, pH 7.5), were dispensed into each of six 38 mL ultracentrifuge tubes. These layers were overlaid with about 8 mL of 20% sucrose buffer (20% sucrose (w/w) in 10 mM Tris, pH 7.5), and finally overlaid with about 20 mL of filtered extract supernatant. The tubes were centrifuged at about 120,000×g for about 100 min at 4° C. After centrifugation, the 10% sucrose layer and most of the 20% sucrose layer were removed by aspiration. The membranes at the interface of the 20% sucrose and 35% sucrose layers were collected, pooled, diluted with 10% sucrose buffer, and centrifuged at about 120,000×g for about 40 min at 4° C. After centrifugation, the supernatant was discarded, and the pellets resuspended in about 6.5 mL of assay buffer (10 mM phosphate, 300 mM NaCl, pH 7.5) using a 10 mL Potter-Elvehjem tissue grinder with a Teflon® pestle. Protein concentration was determined by the Bio-Rad Protein Assay (available from Bio-Rad Laboratories, Hercules, Calif.) using bovine serum albumin as a standard. The membranes were aliquoted and stored in liquid nitrogen for up to 2 months before use.
Housefly neuronal membranes were prepared as described above from housefly heads. Test compounds were dissolved in dimethylsulfoxide (DMSO) at concentrations ranging from about 2 nM to about 100 mM. About 1 μL of a dissolved test compound was dispensed into a well of a 96-well polystyrene plate. About 100 μL of ice cold assay buffer (10 mM phosphate, 300 mM NaCl, pH 7.5) containing 5.2 nM 4′-Ethynyl-4-n-[2,3-^3H2]propylbicycloorthobenzoate (^3H-EBOB, 38 Ci/mmol, available from NEN Life Science Products, Boston, Mass.) was added to the well, followed by about 100 μL of ice cold assay buffer containing about 0.5-1.0 mg/mL housefly neuronal membranes. Control wells were prepared the same way except that the housefly neuronal membranes were omitted from the “negative” wells, and the test compounds were omitted from the “positive” wells. […]

Experiment [2] has as its target Mouse Brain GABA Receptors. Kind of experiment: In vitro assay of binding to mouse brain GABA receptors (3H-EBOB displacement, mouse brain membranes). Particulars: displacement of 5.2 nM 3H-EBOB, about 45 min at about 24° C. Here is the method:
Mouse brains were obtained from carbon dioxide-asphyxiated Swiss-Webster mice, washed with phosphate-buffered saline, and used either fresh or after storage at −80° C. for up to 10 months. Unless specified, all preparation steps were performed at 0-4° C. For each preparation, 20 brains were suspended in about 40 mL of 0.32 M sucrose and homogenized for about 2 minutes, using a Tissumizer™ homogenizer equipped with a SDT-100EN probe (available from Tekmar-Dohrmann, Cincinnati, Ohio) running at 50% of its maximum speed. The extract was centrifuged for about 5 min at about 1000×g to pellet intact brain tissue. The supernatant was retained and the pellet washed with an additional 40 mL of 0.32 M sucrose and centrifuged at 1000×g for about 5 minutes. The 1000×g supernatants were combined and centrifuged at about 10,000×g for about 20 min to pellet membranes. The 10,000×g supernatant was discarded and the pellet was resuspended in about 20 mL of water containing 1 mM EDTA. The sample was dialyzed two times for about 3 hours each against about 3 L of water. The sample was then centrifuged at about 25,000×g for about 30 min to pellet the membranes. After centrifugation, the supernatant was discarded and the wet pellet recovered. The protein concentration of the pellet was determined by the Bio-Rad Protein Assay (available from Bio-Rad Laboratories, Hercules, Calif.) using bovine serum albumin as a standard. The membranes were aliquoted and stored at −80° C. for up to 6 months before use.
Mouse brain membranes were prepared as described above from dissected mouse brains. Test compounds were dissolved in dimethylsulfoxide (DMSO) at concentrations ranging from about 2 nM to about 100 mM. About 1 μL of a dissolved test compound was dispensed into a well of a 96-well polystyrene plate. About 100 μL of ice cold assay buffer (10 mM phosphate, 300 mM NaCl, pH 7.5) containing 5.2 nM 4′-Ethynyl-4-n-[2,3-^3H2]propylbicycloorthobenzoate (^3H-EBOB, 38 Ci/mmol, available from NEN Life Science Products, Boston, Mass.) was added to the well, followed by about 100 μL of ice cold assay buffer containing about 0.25-0.5 mg/mL mouse brain membranes. Control wells were prepared the same way except that the mouse brain membranes were omitted from the “negative” wells, and the test compounds were omitted from the “positive” wells. The samples were incubated for about 45 min at about 24° C. and then filtered on a 0.1% (w/v) polyethylenimine-soaked glass fiber Filtermat A (available from EG&G Wallac Inc., Gaithersburg, Md.) followed by four 100 mL rinses of cold assay buffer using a Harvester 96® cell harvester (available from Tomtec, Orange, Conn.). The filtermat was air dried and radioactivity bound to the filtermat was detected with either a 1450 MicroBeta® Trilux scintillation counter (available from EG&G Wallac Inc.) or a Topcount NXT™ scintillation counter (available from Packard Instrument Co., Meriden, Conn.) using standard methods.
Specific binding was considered to be the difference between total ^3H bound to the mouse brain membranes in the absence of any inhibitors and nonspecific ^3H bound to the mouse brain membranes upon the addition of 5 μM unlabeled EBOB. The average radioactivity contained in the “negative” wells was subtracted from each of the assay wells. […] Compounds that displaced ^3H-EBOB specifically bound to the mouse brain membranes were tested at 24-48 different final concentrations, varying from about 1 nM to about 125 μM, in order to determine the concentration at which 50% of the maximum inhibition due to the addition of that compound was observed (IC50). […]

In experiment [3] the test system is cat fleas (Ctenocephalides felis), CO Fleas. In words: In vivo cat flea contact assay, CO fleas. Particulars: Ctenocephalides felis, topical; contact with treated filter disk in vial, about 24-30 hours; mM = concentration of the DMSO solution, about 1 μL applied; read-out: LD50 (mM), CO Fleas. Here is the method:
This example describes an in vivo assay to screen compounds for their ability to kill cat fleas via contact.
Test compounds were dissolved in dimethylsulfoxide (DMSO) at concentrations ranging from about 0.05 mM to about 100 mM. About 1 μL of dissolved test compound was dispensed onto a 6 mm (diameter) GF/C filter disk (filter material available from Whatman Inc., Clifton, N.J.) in the bottom of a 4 mL screw-top glass vial and allowed to air dry 24-48 hours. Positive control vials were prepared in the same manner except that no test compounds were dissolved in the DMSO. About 20 newly emerged cat fleas (Ctenocephalides felis) were sedated by refrigeration at 0-4° C. and transferred to each vial. Each vial was sealed with a thin, perforated Teflon™ septum secured by an open top screw cap and held vertically in the dark. After about 24-30 hours, the healthy, moribund, and dead cat fleas in each vial were counted. The percentage of dead cat fleas in each vial was then calculated using the formula M=100(D−(FC/100))/(F−(FC/100)), in which M is the percentage of dead cat fleas due to the addition of the test compound, D is the number of dead cat fleas in the test vial, F is the total number of cat fleas in the test vial, and C is the percentage of dead cat fleas in the control vials.

Structures are written as SMILES.

With `CC1CCc2nn(-c3c(Cl)cc(C(F)(F)F)cc3Cl)cc21` (racemic) [Compound 42, 2-[2,6-Dichloro-4-(trifluoromethyl)phenyl]-4-methyl-2,4,5,6-tetrahydrocyclopenta[c]pyrazole], the “Compounds with the most activity (housefly 3H-EBOB binding)” value (from here on “Compounds with the most activity”) in experiment [1] is “most activity”.

The term IC50 denotes the point on the concentration scale where inhibition reaches its midpoint. Compound `F[C@@H]1Cc2cn(-c3c(Cl)cc(C(F)(F)F)cc3Cl)nc2[C@@H]1F` (relative stereo) [Compound 81, cis-2-[2,6-Dichloro-4-(trifluoromethyl)phenyl]-5,6-difluoro-2,4,5,6-tetrahydrocyclopenta[c]pyrazole] returned an IC50 in experiment [2] of 1000 nM. The LC50 in experiment [3] came out at 1.5 mM.

For `Nc1c2c(nn1-c1c(Cl)cc(C(F)(F)F)cc1Cl)CSC2` [Compound 1, 2-[2,6-Dichloro-4-(trifluoromethyl)phenyl]-4,6-dihydrothieno-[3,4-c]pyrazole-3-ylamine], in experiment [1], the “Compounds with the most activity” value is “most activity”.

`O=S(=O)(Oc1c2c(nn1-c1c(Cl)cc(C(F)(F)F)cc1Cl)CSC2)c1ccccc1` [Compound 6, 2-[2,6-Dichloro-4-(trifluoromethyl)phenyl]-4,6-dihydrothieno-[3,4-c]pyrazole-3-yl benzenesulfonate] showed an IC50 in experiment [2] of 730 nM.

With `FC(F)(F)c1cc(Cl)c(-n2cc3c(n2)CCSC3)c(Cl)c1` [Compound 10, 2-[2,6-Dichloro-4-(trifluoromethyl)phenyl]-2H,4H,6H,7H-thiano[4,3-c]pyrazole], the “Compounds with the most activity” value in experiment [1] is on record as “most activity”. The compound also had a concentration for half-maximal inhibition (IC50) in experiment [2] of 3800 nM.

Regarding `CC1(C)CCc2cn(-c3c(Cl)cc(C(F)(F)F)cc3Cl)nc21` [Compound 12, 2-[2,6-Dichloro-4-(trifluoromethyl)phenyl]-6,6-dimethyl-2,4,5,6-tetrahydrocyclopenta[c]pyrazole], the “Compounds with the most activity” value in experiment [1] is “most activity”. This compound also gave an IC50 in experiment [2] of 30000 nM.

With `FC(F)(F)c1cc(Cl)c(-n2cc3sccc3n2)c(Cl)c1` [Compound 22, 2-[2,6-Dichloro-4-(trifluoromethyl)phenyl]-2H-thieno[3,2-c]pyrazole], in experiment [1], the “Compounds with the most activity” value is on record as “most activity”.

Compound `FC1Cc2nn(-c3c(Cl)cc(C(F)(F)F)cc3Cl)cc2C1(F)F` (centres unmarked) [Compound 56, 2-[2,6-Dichloro-4-(trifluoromethyl)phenyl]-4,4,5-trifluoro-2,4,5,6-tetrahydrocyclopenta[c]pyrazole] registered an IC50 in experiment [2] of 1000 nM. The LC50 in experiment [3] was 1 mM.

For the compound `FC(F)(F)c1cc(Cl)c(-n2cc3c(n2)CC=C3)c(Cl)c1` [Compound 63, 2-[2,6-Dichloro-4-(trifluoromethyl)phenyl]-6-hydrocyclopenta[1,2-c]pyrazole], in experiment [2], the IC50 stood at 1000 nM.

In turn, `O=S(=O)(C1CCc2nn(-c3c(Cl)cc(C(F)(F)F)cc3Cl)cc21)C(F)(F)F` (centres unmarked) [Compound 67] gave an IC50 in experiment [2] of 25000 nM.

`CSC1CCc2nn(-c3c(Cl)cc(C(F)(F)F)cc3Cl)cc21` (centres unmarked) [Compound 68, 2-[2,6-Dichloro-4-(trifluoromethyl)phenyl]-4-methylthio-2,4,5,6-tetrahydrocyclopenta[c]pyrazole] yielded an IC50 in experiment [2] of 1000 nM.

As for `CC1(O)c2cn(-c3c(Cl)cc(C(F)(F)F)cc3Cl)nc2CC1(F)F` (centres unmarked) [Compound 93, 2-[2,6-Dichloro-4-(trifluoromethyl)phenyl]-5,5-difluoro-4-methyl-2,4,5,6-tetrahydrocyclopenta[c]pyrazol-4-ol], the IC50 is 100 nM in experiment [1] (displacement of 5.2 nM 3H-EBOB, housefly head neuronal membranes, about 45 min at about 24° C., read-out: IC50 (nM), Fly Head) and 2300 nM in experiment [2].
